The IC50 is the concentration needed to halve the response being measured.

Where only a bound is given, the exact number is not on record here.

One experiment deals with A-549 (lung carcinoma). Description: MTT cell proliferation assay, A-549. Format: cell-based, human. The conditions noted are these: 72 h incubation, 95% confidence interval in parentheses. How it is done: To use these S-glycosidic compounds in cellulo, the potential impact of the glycosidic linkage nature on the anticancer activity was assessed. The S-glycoside derivatives and the 7-MC were tested against four human cancer cell lines and a healthy one, namely A549 (lung carcinoma), HS-683 (glioma cancer), MCF-7 (breast adenocarcinoma), SK-MEL-28 (melanoma skin cancer), and HaCaT (keratinocyte normal skin), using MTT (thiazolyl blue tetrazolium bromide, Sigma-Aldrich, St. Louis, MO, USA) assay, as previously described in the literature.
Cell proliferation of five distinct cell lines was evaluated using the colorimetric MTT (thiazolyl blue tetrazolium bromide, Sigma) assay. Human keratinocyte normal skin HaCaT was cultivated in DMEM supplemented with 4.5 g/L glucose, 2 mM L-glutamine, and 10% FBS. Cancer cell lines and their respective growth media were obtained from CLS Cell Line Service GmbH (Eppelheim, Germany). Specifically, human skin melanoma SK-MEL-28 and human brain glioma HS683 were cultivated in DMEM with identical supplements as HaCaT cells. The human lung carcinoma cell line A-549 was grown in DMEM/Ham’s F12 (1:1) medium supplemented with 2 mM L-glutamine and 5% FBS. Additionally, human breast adenoma carcinoma MCF-7 cells were sustained in EMEM supplemented with 2 mM L-glutamine, sodium pyruvate, non-essential amino acids (NEAAs), 10 µg/mL insulin human, and 10% FBS. The MTT assay relies on the reduction of the yellow product thiazolyl blue tetrazolium bromide (MTT) to formazan, a purple-blue product, by mitochondrial dehydrogenases in metabolically active cells. The number of living cells after incubation in the presence (or absence, control) of the tested molecules is directly proportional to the blue color, which was measured by spectrophotometry. To perform the assay, cells were initially seeded at a density of 2500 cells/mL in 96-well culture plates (Nunc™ Edge 2.0, Fisher) and allowed to adhere and proliferate over a 24-hour incubation period. Following this, the cells were treated with various concentrations of the tested compounds, which were previously prepared as serial dilutions and dissolved in 0.1% DMSO. […] Each concentration of the tested compounds underwent triplicate testing (n = 3), and cells were subsequently incubated for 72 h to allow for thorough evaluation. Following this incubation period, MTT reagent (5 mg/mL solution in PBS) was introduced to each well (10% v/v), and cells were further incubated for 4 h. Then, the culture medium was carefully removed, and the resulting blue formazan crystals were dissolved in 100 µL of 100% DMSO. Absorbance readings were taken at 540 nm, referencing a wavelength of 620 nm, using a spectrophotometer. In determining the IC50, the absorbance of serial dilutions of each cell line, treated under identical conditions but without the presence of the tested compounds, was measured.
Background: Formazan colour is commonly taken as a measure of viable cells.
As to `Cc1cc(=O)oc2cc(S[C@@H]3OC[C@@H](O)[C@H](O)[C@H]3O)ccc12` [Compound S-2, 4-Methylumbellifer-7-yl 1-thio-β-D-xylopyranoside], the IC50 is 74.8 µM.

Staying with this experiment, now noted: Homo sapiens, A549, 72 h, 72 h incubation, 95% confidence interval in parentheses.
Regarding `Cc1cc(=O)oc2cc(S)ccc12` [Compound 7-MC, 7-mercapto-4-methylcoumarin, reference compound], the IC50 was above 1000 µM.
On to `Cc1cc(=O)oc2cc(S[C@@H]3O[C@H](C(=O)O)[C@@H](O)[C@H](O)[C@H]3O)ccc12` [Compound S-1, 4-Methylumbellifer-7-yl 1-thio-β-D-glucopyranosiduronic acid], for which the IC50 is above 1000 µM.
The same measure, in the same setting: under `Cc1cc(=O)oc2cc(S[C@@H]3OC[C@@H](O)[C@H](O)[C@H]3O)ccc12` [Compound S-2, 4-Methylumbellifer-7-yl 1-thio-β-D-xylopyranoside] stands 74 µM; under `Cc1cc(=O)oc2cc(S[C@@H]3O[C@H](CO)[C@@H](O)[C@H](O)[C@H]3O)ccc12` [Compound S-3, 4-Methylumbellifer-7-yl 1-thio-β-D-glucopyranoside], above 1000 µM; under `Cc1cc(=O)oc2cc(S[C@@H]3O[C@H](CO)[C@H](O)[C@H](O)[C@H]3O)ccc12` [Compound S-4, 4-Methylumbellifer-7-yl 1-thio-β-D-galactopyranoside], above 1000 µM.
In the case of `Cc1cc(=O)oc2cc(S[C@@H]3O[C@H](C)[C@H](O)[C@H](O)[C@H]3O)ccc12` [Compound S-5, 4-Methylumbellifer-7-yl 1-thio-β-D-fucopyranoside], the IC50 is above 1000 µM.
Turning to `Cc1cc(=O)oc2cc(S[C@H]3O[C@H](CO)[C@H](O)[C@H](O)[C@H]3O)ccc12` [Compound S-6, 4-Methylumbellifer-7-yl 1-thio-α-D-galactopyranoside], the IC50 was above 1000 µM.

The values are drawn from paper PMC10974290, “Biocatalytic Synthesis of Coumarin S-Glycosides: Towards Non-Cytotoxic Probes for Biomedical Imaging and Sensing” (Molecules, 2024).
